This is an account of results in patent US20260209196A1, “AMIDINOUREA DERIVATIVES AND THEIR USE IN THE TREATMENT OF CANCER” (UNIVERSITE COTE D'AZUR, priority 2022, published 2026).

The structures appear in SMILES notation.

The first assay deals with A375. The assay can be described thus: Cell viability of A375 melanoma cells by Trypan Blue exclusion. Format: cell-based. As to conditions: Homo sapiens, A-375; 5 μM, 24 h; viable cells as mean percentage of control cells ± SEM, N=3; read-out: Viab A375 5 μM/24 h. How it is done: The BRAFV600E mutant melanoma line A375 (CRL-1619) was purchased from ATCC (Manassas, VA, USA). The A375 were maintained in glutamine-containing DMEM supplemented with 10% heat-inactivated fetal bovine serum, penicillin (100 units/ml) and streptomycin ([…]).
Cell viability was measured by the Trypan Blue exclusion method. Briefly, cells washed with PBS were harvested by a 3-minute incubation in 0.05% trypsin before neutralization with serum containing medium. An aliquot of the cell suspension was then mixed 1:1 with a 0.4% Trypan blue solution and viable cells were counted within 5 minutes on Kova slides under an optical microscope. Results are expressed as the mean percentage of control cells±SEM. N=3
`Cc1ccccc1NC(=O)NC(=N)Nc1nc2ccccc2s1` [MTF495, N-benzo[d]thiazol-2-yl-N″-(2-methylaniline-carbonyl)-guanidine]: the viability at 5 µM stood at 38.6%.

In the case of `COc1cccc(NC(=O)NC(=N)Nc2nc(-c3cccc([N+](=O)[O-])c3)cs2)c1` [MTF432, N-4-(3-nitrophenyl) thiazol-2-yl-N″-(3-methoxyaniline-carbonyl)-guanidine], the viability at 5 µM was 115%.

Consider `N=C(NC(=O)Nc1cccc(Cl)c1)Nc1nc2ccccc2s1` [MTF415, N-benzo[d]thiazol-2-yl-N″-(3-chloroaniline-carbonyl)-guanidine], for which the viability at 5 µM was 93.5%.

As for `Cc1cccc(NC(=O)NC(=N)Nc2nc3ccccc3s2)c1` [MTF420, N-benzo[d]thiazol-2-yl-N″-(3-methylaniline-carbonyl)-guanidine], the viability at 5 µM worked out at 59%.

For the compound `Cc1nc(NC(=N)NC(=O)Nc2ccccc2Cl)sc1C` [MTF505, 4,5-dimethylthiazol-2-yl-N″-(2-chloroaniline-carbonyl)-guanidine], the viability at 5 µM came out at 31.1%.

On to `N=C(NC(=O)NC1CC1)Nc1nc2ccccc2s1` [MTF214, N—(N-(benzo[d]thiazol-2-yl)carbamimidoyl)cyclopropylamine-1-carboxamide], for which the viability at 5 µM was 98.2%.

As for `N=C(NC(=O)Nc1ccccc1)Nc1nc2ccccc2s1` [MTF314, N—(N-(benzo[d]thiazol-2-yl)carbamimidoyl)-anilinocarboxamide], the viability at 5 µM is 53.5%.

Turning to `N=C(NC(=O)Nc1ccc(Cl)cc1)Nc1nc(-c2cccc([N+](=O)[O-])c2)cs1` [MTF428, N-4-(3-nitrophenyl) thiazol-2-yl-N″-(4-chloroaniline-carbonyl)-guanidine], the viability at 5 µM worked out at 128%.

Take `COc1ccccc1NC(=O)NC(=N)Nc1nc(-c2cccc([N+](=O)[O-])c2)cs1` [MTF434, N-4-(3-nitrophenyl) thiazol-2-yl-N″-(2-methoxyaniline-carbonyl)-guanidine]: the viability at 5 µM was 63.8%.

As for `COc1ccccc1NC(=O)NC(=N)Nc1nc2ccccc2s1` [MTF419, N-benzo[d]thiazol-2-yl-N″-(2-methoxyaniline-carbonyl)-guanidine], the viability at 5 µM worked out at 62.6%.

Take `COc1cccc(NC(=O)NC(=N)Nc2nc(C)c(C)s2)c1` [MTF511, 4,5-dimethylthiazol-2-yl-N″-(3-methoxyaniline-carbonyl)-guanidine]: the viability at 5 µM came to 92.1%.

For `N=C(NC(=O)Nc1ccc(Br)cc1)Nc1nc(-c2cccc([N+](=O)[O-])c2)cs1` [MTF427, N-4-(3-nitrophenyl) thiazol-2-yl-N″-(4-bromoaniline-carbonyl)-guanidine], the viability at 5 µM is 94.2%.

Consider `N=C(NC(=O)Nc1cccc2ccccc12)Nc1nc(-c2cccc([N+](=O)[O-])c2)cs1` [MTF430, N-4-(3-nitrophenyl) thiazol-2-yl-N″-(naphtalen-1-amine-carbonyl)-guanidine], for which the viability at 5 µM amounted to 75.8%.

Regarding `Cc1cccc(NC(=O)NC(=N)Nc2nc(C)c(C)s2)c1` [MTF510, 4,5-dimethylthiazol-2-yl-N″-(3-methylaniline-carbonyl)-guanidine], the viability at 5 µM came to 56.5%.

Consider `Cc1cccc(NC(=O)NC(=N)Nc2nc(-c3cccc([N+](=O)[O-])c3)cs2)c1` [MTF431, N-4-(3-nitrophenyl) thiazol-2-yl-N″-(3-methylaniline-carbonyl)-guanidine], for which the viability at 5 µM was 95.4%.

The same assay, now with this note: Homo sapiens, A-375; 5 μM, 48 h; viable cells as mean percentage of control cells ± SEM, N=3; read-out: Viab A375 5 μM/48 h.
Regarding `Cc1ccccc1NC(=O)NC(=N)Nc1nc2ccccc2s1` [MTF495, N-benzo[d]thiazol-2-yl-N″-(2-methylaniline-carbonyl)-guanidine], the viability at 5 µM was determined as 8%.

As for `COc1cccc(NC(=O)NC(=N)Nc2nc(-c3cccc([N+](=O)[O-])c3)cs2)c1` [MTF432, N-4-(3-nitrophenyl) thiazol-2-yl-N″-(3-methoxyaniline-carbonyl)-guanidine], the viability at 5 µM is 29.8%.

On to `N=C(NC(=O)Nc1cccc(Cl)c1)Nc1nc2ccccc2s1` [MTF415, N-benzo[d]thiazol-2-yl-N″-(3-chloroaniline-carbonyl)-guanidine], for which the viability at 5 µM was 32.9%.

With `Cc1cccc(NC(=O)NC(=N)Nc2nc3ccccc3s2)c1` [MTF420, N-benzo[d]thiazol-2-yl-N″-(3-methylaniline-carbonyl)-guanidine], the viability at 5 µM is 24.8%.

As to `Cc1nc(NC(=N)NC(=O)Nc2ccccc2Cl)sc1C` [MTF505, 4,5-dimethylthiazol-2-yl-N″-(2-chloroaniline-carbonyl)-guanidine], the viability at 5 µM came out at 10%.

Consider `N=C(NC(=O)NC1CC1)Nc1nc2ccccc2s1` [MTF214, N—(N-(benzo[d]thiazol-2-yl)carbamimidoyl)cyclopropylamine-1-carboxamide], for which the viability at 5 µM amounted to 76.6%.

Consider `N=C(NC(=O)Nc1ccccc1)Nc1nc2ccccc2s1` [MTF314, N—(N-(benzo[d]thiazol-2-yl)carbamimidoyl)-anilinocarboxamide], for which the viability at 5 µM was determined as 12.3%.

On to `N=C(NC(=O)Nc1ccc(Cl)cc1)Nc1nc(-c2cccc([N+](=O)[O-])c2)cs1` [MTF428, N-4-(3-nitrophenyl) thiazol-2-yl-N″-(4-chloroaniline-carbonyl)-guanidine], for which the viability at 5 µM was 50.2%.

Consider `COc1ccccc1NC(=O)NC(=N)Nc1nc(-c2cccc([N+](=O)[O-])c2)cs1` [MTF434, N-4-(3-nitrophenyl) thiazol-2-yl-N″-(2-methoxyaniline-carbonyl)-guanidine], for which the viability at 5 µM is 50.7%.

As for `COc1ccccc1NC(=O)NC(=N)Nc1nc2ccccc2s1` [MTF419, N-benzo[d]thiazol-2-yl-N″-(2-methoxyaniline-carbonyl)-guanidine], the viability at 5 µM stood at 18.8%.

Consider `COc1cccc(NC(=O)NC(=N)Nc2nc(C)c(C)s2)c1` [MTF511, 4,5-dimethylthiazol-2-yl-N″-(3-methoxyaniline-carbonyl)-guanidine], for which the viability at 5 µM came to 82.8%.

Consider `N=C(NC(=O)Nc1ccc(Br)cc1)Nc1nc(-c2cccc([N+](=O)[O-])c2)cs1` [MTF427, N-4-(3-nitrophenyl) thiazol-2-yl-N″-(4-bromoaniline-carbonyl)-guanidine], for which the viability at 5 µM was determined as 34.4%.

As for `N=C(NC(=O)Nc1cccc2ccccc12)Nc1nc(-c2cccc([N+](=O)[O-])c2)cs1` [MTF430, N-4-(3-nitrophenyl) thiazol-2-yl-N″-(naphtalen-1-amine-carbonyl)-guanidine], the viability at 5 µM is 25.3%.

On to `Cc1cccc(NC(=O)NC(=N)Nc2nc(C)c(C)s2)c1` [MTF510, 4,5-dimethylthiazol-2-yl-N″-(3-methylaniline-carbonyl)-guanidine], for which the viability at 5 µM came out at 26.1%.

For the compound `Cc1cccc(NC(=O)NC(=N)Nc2nc(-c3cccc([N+](=O)[O-])c3)cs2)c1` [MTF431, N-4-(3-nitrophenyl) thiazol-2-yl-N″-(3-methylaniline-carbonyl)-guanidine], the viability at 5 µM amounted to 41.6%.

Still in this assay, the particulars now being: Homo sapiens, A-375; 10 μM, 24 h; viable cells as mean percentage of control cells ± SEM, N=3; read-out: Viab A375 10 μM/24 h.
Consider `N=C(NC(=O)Nc1cccc(Cl)c1)Nc1nc2ccccc2s1` [MTF415, N-benzo[d]thiazol-2-yl-N″-(3-chloroaniline-carbonyl)-guanidine], for which the viability at 10 µM came out at 58.3%.

Take `Cc1cccc(NC(=O)NC(=N)Nc2nc3ccccc3s2)c1` [MTF420, N-benzo[d]thiazol-2-yl-N″-(3-methylaniline-carbonyl)-guanidine]: the viability at 10 µM was found to be 48.9%.

For the compound `N=C(NC(=O)NC1CC1)Nc1nc2ccccc2s1` [MTF214, N—(N-(benzo[d]thiazol-2-yl)carbamimidoyl)cyclopropylamine-1-carboxamide], the viability at 10 µM is 51.5%.

Turning to `N=C(NC(=O)Nc1ccccc1)Nc1nc2ccccc2s1` [MTF314, N—(N-(benzo[d]thiazol-2-yl)carbamimidoyl)-anilinocarboxamide], the viability at 10 µM came to 32.7%.

Regarding `COc1ccccc1NC(=O)NC(=N)Nc1nc2ccccc2s1` [MTF419, N-benzo[d]thiazol-2-yl-N″-(2-methoxyaniline-carbonyl)-guanidine], the viability at 10 µM was 56.8%.

The same assay, now with this note: Homo sapiens, A-375; 10 μM, 48 h; viable cells as mean percentage of control cells ± SEM, N=3; read-out: Viab A375 10 μM/48 h.
For the compound `N=C(NC(=O)Nc1cccc(Cl)c1)Nc1nc2ccccc2s1` [MTF415, N-benzo[d]thiazol-2-yl-N″-(3-chloroaniline-carbonyl)-guanidine], the viability at 10 µM was 19.9%.

With `Cc1cccc(NC(=O)NC(=N)Nc2nc3ccccc3s2)c1` [MTF420, N-benzo[d]thiazol-2-yl-N″-(3-methylaniline-carbonyl)-guanidine], the viability at 10 µM is 20.4%.

Regarding `N=C(NC(=O)NC1CC1)Nc1nc2ccccc2s1` [MTF214, N—(N-(benzo[d]thiazol-2-yl)carbamimidoyl)cyclopropylamine-1-carboxamide], the viability at 10 µM is 87.7%.

`N=C(NC(=O)Nc1ccccc1)Nc1nc2ccccc2s1` [MTF314, N—(N-(benzo[d]thiazol-2-yl)carbamimidoyl)-anilinocarboxamide]: the viability at 10 µM was found to be 7.6%.

Turning to `COc1ccccc1NC(=O)NC(=N)Nc1nc2ccccc2s1` [MTF419, N-benzo[d]thiazol-2-yl-N″-(2-methoxyaniline-carbonyl)-guanidine], the viability at 10 µM was determined as 21.8%.

For the next assay, the system named is NCI 60 cell panel. The assay is described as follows: DTP-NCI assay (NCI 60 cell screen, single high dose). Format: cell-based. To be noted: Homo sapiens, 48 h; single high dose 10^-5 M, full NCI 60 cell panel; growth relative to no-drug control and to time zero number of cells; read-out: DTP-NCI (mean of the percent growth of treated cells). How it is done:
The effect of 10 μM of MTF504 was monitored on a panel 60 cell lines representing nine distinct tumour types: leukemia, colon, lung, central nervous system, renal, melanoma, ovarian, breast and prostate. Briefly, the compound was sent to the US National Cancer Institute where its antineoplastic effects were monitored on the panel of cell lines after 48 hours of treatment following a standardized protocol.
All compounds submitted to the NCI 60 Cell screen are tested initially at a single high dose (10^-5 M) in the full NCI 60 cell panel. The results are reported as a mean of the percent growth of treated cells. The number reported is growth relative to the no-drug control, and relative to the time zero number of cells. This allows detection of […].
Consider `Cc1ccccc1NC(=O)NC(=N)Nc1nc2ccccc2s1` [MTF495, N-benzo[d]thiazol-2-yl-N″-(2-methylaniline-carbonyl)-guanidine], for which the activity at 10 µM is 25.9%.

Take `COc1cccc(NC(=O)NC(=N)Nc2nc(-c3cccc([N+](=O)[O-])c3)cs2)c1` [MTF432, N-4-(3-nitrophenyl) thiazol-2-yl-N″-(3-methoxyaniline-carbonyl)-guanidine]: the activity at 10 µM came to 74.8%.

In the case of `N=C(NC(=O)Nc1cccc(Cl)c1)Nc1nc2ccccc2s1` [MTF415, N-benzo[d]thiazol-2-yl-N″-(3-chloroaniline-carbonyl)-guanidine], the activity at 10 µM came to 35.4%.

On to `Cc1cccc(NC(=O)NC(=N)Nc2nc3ccccc3s2)c1` [MTF420, N-benzo[d]thiazol-2-yl-N″-(3-methylaniline-carbonyl)-guanidine], for which the activity at 10 µM worked out at 32.9%.

For `Cc1nc(NC(=N)NC(=O)Nc2ccccc2Cl)sc1C` [MTF505, 4,5-dimethylthiazol-2-yl-N″-(2-chloroaniline-carbonyl)-guanidine], the activity at 10 µM is 33%.

Consider `N=C(NC(=O)Nc1ccccc1)Nc1nc2ccccc2s1` [MTF314, N—(N-(benzo[d]thiazol-2-yl)carbamimidoyl)-anilinocarboxamide], for which the activity at 10 µM is 37.4%.

`COc1ccccc1NC(=O)NC(=N)Nc1nc2ccccc2s1` [MTF419, N-benzo[d]thiazol-2-yl-N″-(2-methoxyaniline-carbonyl)-guanidine]: the activity at 10 µM worked out at 26.7%.

In the case of `N=C(NC(=O)Nc1ccc(Br)cc1)Nc1nc(-c2cccc([N+](=O)[O-])c2)cs1` [MTF427, N-4-(3-nitrophenyl) thiazol-2-yl-N″-(4-bromoaniline-carbonyl)-guanidine], the activity at 10 µM is 72.5%.

In the case of `N=C(NC(=O)Nc1cccc2ccccc12)Nc1nc(-c2cccc([N+](=O)[O-])c2)cs1` [MTF430, N-4-(3-nitrophenyl) thiazol-2-yl-N″-(naphtalen-1-amine-carbonyl)-guanidine], the activity at 10 µM was found to be 89.2%.

Regarding `Cc1cccc(NC(=O)NC(=N)Nc2nc(C)c(C)s2)c1` [MTF510, 4,5-dimethylthiazol-2-yl-N″-(3-methylaniline-carbonyl)-guanidine], the activity at 10 µM is 47.2%.
